Results reported in patent publication US8765946B2, “Methods of preparing and using quinazoline and quinoline derivatives” (priority 2006, dated 2014).

Tested on: A431 cells
Experiment: A431 cell growth inhibition assay (MTT assay)
Type: cell-based
Conditions: Homo sapiens, A-431, concentration of 3 μM, 72 hours, read-out: Inhibition Percent (%)
Description: A431 Cell Growth Inhibition Assay (MTT Assay)
A431, an epidermoid carcinoma cell line; The Cell Bank, Committee on Type Culture Collection Chinese Academy of Science, Shanghai.
Mix prepared medium DMEM and F12 in the proportion of 1:1, then add FBS to a final concentration of 10%.
Dissolved the dried compound sample with 100% DMSO to 2 mM. Then diluted the dissolved compound to 20 μM with cell complete growth medium.
Prior to the assay, cultured the A431 to logarithmic phase, and then removed medium from cell monolayers and wash the cells once with sterilized PBS. Aspriated the PBS and added 2 mL trypsin solution to cover the cell growth surface, removed 1 mL trypsin solution after soaking about 1 minute. Transferred the cell-culture plate to CO2 incubator; incubated at 37° C. for 8 minutes to allow cells to dissociate. After the cells detached, added 4 mL complete growth medium containing FBS with pipette to disperse them off and mixed gently to obtain a homogeneous cell suspension. Aspirated some of the cell suspension to a sterilized polypropylene tube, and determined the cell concentration by counting in a hematocytometer chamber under a microscope. Adjusted the cell concentration with growth medium to obtain 2.5×10^4 cells per milliliter.
Added 100 μL adjusted cell suspension to the 96-well cell-culture plate and occasionally mixed the cell suspension during the seeding process. After seeding cells, incubated the plate at 37° C. overnight with 5% CO2 in the CO2 incubator for cell attachment.
After the cell attachment, added 100 μL prepared compound solutions to the corresponding wells (add PBS to the ambient wells of the plate). The final compound concentrations ranged from 10 μM to 1.52 nM. Incubated the plate at 37° C. with 5% CO2 for 72 hours in the CO2 incubator.
After the exposure to the compound, removed the cell culture supernatant. Then added 100 μL 0.5 mg/mL MTT solution which dissolved in the growth medium without FBS. Incubated the plate at 37° C. with 5% CO2 for another 4 hours to allow the MTT reaction to proceed.
After the MTT reaction, discarded the MTT reaction solution. Added 100 μL DMSO to each well, and the plate was agitated on the plate shaker for several minutes to dissolve the formazan. Then, detected the absorbance at 490 nm using microplate reader.

| SMILES | inhibition at 3 µM [%] |
| --- | --- |
| CCOc1cc2ncc(C#N)c(Nc3ccc(F)c(Cl)c3)c2cc1NC(=O)C=C1CCN(CC)CC1 [Example 178, N-(4-(3-chloro-4-fluorophenylamino)-3-cyano-7-ethoxyquinolin-6-yl)-2-(1-ethylpiperidin-4-ylidene)acetamide] | 88 |
| CCCN1CCC(=CC(=O)Nc2cc3c(Nc4ccc(F)c(Cl)c4)c(C#N)cnc3cc2OCC)CC1 [Example 179, N-(4-(3-chloro-4-fluorophenylamino)-3-cyano-7-ethoxyquinolin-6-yl)-2-(1-proplpiperidin-4-ylidene)acetamide] | 90 |
| COCCOc1cc2ncc(C#N)c(Nc3ccc(F)c(Cl)c3)c2cc1NC(=O)C=C1CCN(C)CC1 [Example 180, N-(4-(3-chloro-4-fluorophenylamino)-3-cyano-7-(2-methoxyethoxy)quinolin-6-yl)-2-(1-methylpiperidin-4-ylidene)acetamide] | 92 |
| CCN1CCC(=CC(=O)Nc2cc3c(Nc4ccc(F)c(Cl)c4)c(C#N)cnc3cc2OCCOC)CC1 [Example 181, N-(4-(3-chloro-4-fluorophenylamino)-3-cyano-7-(2-methoxyethoxy)quinolin-6-yl)-2-(1-ethylpiperidin-4-ylidene)acetamide] | 94 |
| CCCN1CCC(=CC(=O)Nc2cc3c(Nc4ccc(F)c(Cl)c4)c(C#N)cnc3cc2OCCOC)CC1 [Example 182, N-(4-(3-chloro-4-fluorophenylamino)-3-cyano-7-(2-methoxyethoxy)quinolin-6-yl)-2-(1-propylpiperidin-4-ylidene)acetamide] | 90 |
| COCCOc1cc2ncc(C#N)c(Nc3ccc(F)c(Cl)c3)c2cc1NC(=O)C=C1CCN(CCOC)CC1 [Example 183, N-(4-(3-chloro-4-fluorophenylamino)-3-cyano-7-(2-methoxyethoxy)quinolin-6-yl)-2-(1-(2-methoxyethyl)piperidin-4-ylidene)acetamide] | 90 |
| C#Cc1cccc(Nc2c(C#N)cnc3cc(OCCOC)c(NC(=O)C=C4CCN(C)CC4)cc23)c1 [Example 190, N-(3-cyano-4-(3-ethynylphenylamino)-7-(2-methoxyethoxy)quinolin-6-yl)-2-(1-methylpiperidin-4-ylidene)acetamide] | 91 |
| C#Cc1cccc(Nc2c(C#N)cnc3cc(OCCOC)c(NC(=O)C=C4CCN(CC)CC4)cc23)c1 [Example 191, N-(3-cyano-4-(3-ethynylphenylamino)-7-(2-methoxyethoxy)quinolin-6-yl)-2-(1-ethylpiperidin-4-ylidene)acetamide] | 93 |
| C#Cc1cccc(Nc2c(C#N)cnc3cc(OCCOC)c(NC(=O)C=C4CCN(CCC)CC4)cc23)c1 [Example 192, N-(3-cyano-4-(3-ethynylphenylamino)-7-(2-methoxyethoxy)quinolin-6-yl)-2-(1-propylpiperidin-4-ylidene)acetamide] | 93 |
| C#Cc1cccc(Nc2c(C#N)cnc3cc(OCCOC)c(NC(=O)C=C4CCN(CCOC)CC4)cc23)c1 [Example 193, N-(3-cyano-4-(3-ethynylphenylamino)-7-(2-methoxyethoxy)quinolin-6-yl)-2-(1-(2-methoxyethyl)piperidin-4-ylidene)acetamide] | 90 |
| COCCOc1cc2ncc(C#N)c(Nc3cccc(Br)c3)c2cc1NC(=O)C=C1CCN(C)CC1 [Example 194, N-(4-(3-bromophenylamino)-3-cyano-7-(2-methoxyethoxy)quinolin-6-yl)-2-(1-methylpiperidin-4-ylidene)acetamide] | 89 |

Biological target: T1, A431 cells EGFR-TK phosphorylation stimulated by EGF (Homo sapiens, UniProt P00533)
T1 construct: against A431 cells EGFR-TK; endogenous in cells; host or cells: A431 cells
Experiment: Inhibition of cellular EGFR-TK phosphorylation stimulated by EGF in A431 cells
Type: cell-based
Conditions: A431 cells EGFR-TK phosphorylation stimulated by EGF (Table 4)
Description: Inhibition Experiment of Cellular Epidermal Growth Factor Receptor Tyrosine Kinase
1) A431 cells were cultured in a medium which was prepared by adding 10% FCS into another medium comprising 50% DMEM and 50% F12.
2) A431 cells grown in six-well plates were cultured in a serum-free medium for 24 hours. During the 24 hour period the medium was replenished once after 12 hours.
3) A solution containing a compound to be assessed was added the A431 cells and the cells were cultured for 2 hours, supplemented twice by a medium free of the compound, and then EGF (100 ng/well) was added, and cultured for 5 minutes.
4) A431 cell homogenate was prepared by Laemili buffer which comprised 2% sodium dodecyl sulfonate (SDS), 5% 2-mercaptoethanol, 10% glycerol and 5 mM Tris (pH 6.8).
5) The A431 cell homogenate was heated for 5 minutes at 100° C.
6) Proteins in the A431 cell homogenates were separated by PAGE and transferred onto a nitrocellulose membrane, and an infrared reading was obtained.

T1 sequence (P00533 25-1210): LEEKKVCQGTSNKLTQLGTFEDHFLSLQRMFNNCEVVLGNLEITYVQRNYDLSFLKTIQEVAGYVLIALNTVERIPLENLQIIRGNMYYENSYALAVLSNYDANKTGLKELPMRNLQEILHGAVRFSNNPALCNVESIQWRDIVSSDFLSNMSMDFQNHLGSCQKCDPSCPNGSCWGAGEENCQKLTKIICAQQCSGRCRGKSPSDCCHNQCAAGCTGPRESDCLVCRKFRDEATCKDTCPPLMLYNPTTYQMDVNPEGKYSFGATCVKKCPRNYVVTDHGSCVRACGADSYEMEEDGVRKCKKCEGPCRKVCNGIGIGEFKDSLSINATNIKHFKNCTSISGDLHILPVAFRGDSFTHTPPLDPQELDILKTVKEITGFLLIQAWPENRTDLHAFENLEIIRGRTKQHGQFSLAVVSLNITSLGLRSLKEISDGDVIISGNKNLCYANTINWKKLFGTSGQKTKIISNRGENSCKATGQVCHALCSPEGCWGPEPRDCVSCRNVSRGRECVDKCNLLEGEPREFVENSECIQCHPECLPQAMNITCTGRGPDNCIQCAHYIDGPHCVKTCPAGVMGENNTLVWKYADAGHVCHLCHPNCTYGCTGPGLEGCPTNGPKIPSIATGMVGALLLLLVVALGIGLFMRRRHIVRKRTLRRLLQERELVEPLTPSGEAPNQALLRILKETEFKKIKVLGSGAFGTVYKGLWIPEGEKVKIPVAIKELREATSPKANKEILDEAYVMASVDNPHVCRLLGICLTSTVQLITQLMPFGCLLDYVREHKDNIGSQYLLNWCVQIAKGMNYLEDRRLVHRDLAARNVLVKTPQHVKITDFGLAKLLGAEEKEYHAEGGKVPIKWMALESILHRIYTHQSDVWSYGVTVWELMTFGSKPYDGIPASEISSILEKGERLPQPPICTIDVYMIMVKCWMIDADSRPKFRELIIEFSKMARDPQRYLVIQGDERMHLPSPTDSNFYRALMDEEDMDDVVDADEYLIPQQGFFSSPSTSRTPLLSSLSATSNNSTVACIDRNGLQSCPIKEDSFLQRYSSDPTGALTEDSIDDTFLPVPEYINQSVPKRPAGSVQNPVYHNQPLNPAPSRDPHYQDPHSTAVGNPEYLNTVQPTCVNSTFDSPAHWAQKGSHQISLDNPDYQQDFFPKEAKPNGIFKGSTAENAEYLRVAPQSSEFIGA

| EC50 [nM] | SMILES |
| --- | --- |
| 230 | COCCOc1cc2ncnc(Nc3cccc(Br)c3)c2cc1NC(=O)C=C1CCN(C)CC1 [Example 65, N-(4-(3-bromophenylamino)-7-(2-methoxyethoxy)quinazolin-6-yl)-2-(1-methylpiperidin-4-ylidene)acetamide] |
| 900 | COc1cc2ncnc(Nc3ccc(Oc4ccccc4)c(OC)c3)c2cc1NC(=O)C=C1CCNCC1 [Example 110, N-(7-methoxy-4-(3-methoxy-4-phenoxyphenylamino)quinazolin-6-yl)-2-(piperidin-4-ylidene)acetamide] |
| 280 | COCCOc1cc2ncc(C#N)c(Nc3ccc(OCc4cccc(F)c4)c(Cl)c3)c2cc1N [Example 141, 4-(4-(3-fluorobenzyloxy)-3-chlorophenylamino)-6-amino-7-(2-methoxyethoxy)quinoline-3-carbonitrile] |

Same assay, conditions: A-431; concentration of 3 μM; A431 cells, EGF stimulated; one-time measurement at a single concentration (preliminary selection); NA = No activity; read-out: Inhibition Percent (%)

| SMILES | inhibition at 3 µM [%] |
| --- | --- |
| C#Cc1cccc(Nc2ncnc3ccc(NC(=O)C=C4CCN(Cc5ccccc5)CC4)cc23)c1 [Example 6, 2-(1-benzylpiperidin-4-ylidene)-N-(4-(3-ethynylphenylamino)quinazolin-6-yl)acetamide] | 24 |
| C[C@@H](Nc1ncnc2ccc(NC(=O)C=C3CCNCC3)cc12)c1ccccc1 [Example 35, N-(4-((R)-1-phenylethylamino)quinazolin-6-yl)-2-(piperidin-4-ylidene)acetamide] | 23 |
| N#Cc1cnc2ccc(N)cc2c1Nc1ccc(F)c(Cl)c1 [Example 132, 6-amino-4-(3-chloro-4-fluorophenylamino)quinoline-3-carbonitrile] | 64 |
| COCCOc1cc2ncc(C#N)c(Nc3ccc(OCc4cccc(F)c4)c(Cl)c3)c2cc1N [Example 141, 4-(4-(3-fluorobenzyloxy)-3-chlorophenylamino)-6-amino-7-(2-methoxyethoxy)quinoline-3-carbonitrile] | 91 |

Further lines, results first:

| inhibition at 3 µM [%] | SMILES |
| --- | --- |
| 73 | C#Cc1cccc(Nc2ncnc3ccc(NC(=O)C=C4CCN(CC)CC4)cc23)c1 [Example 5, 2-(1-Ethylpiperidin-4-ylidene)-N-(4-(3-ethynylphenylamino)quinazolin-6-yl)acetamide] |
| 55 | O=C(C=C1CCNCC1)Nc1cc2c(Nc3cccc(Cl)c3)ncnc2cc1F [Example 30, N-(4-(3-chlorophenylamino)-7-fluoroquinazolin-6-yl)-2-(piperidin-4-ylidene)acetamide] |
| 33 | O=C(C=C1CCNCC1)Nc1ccc2ncnc(Nc3ccccc3)c2c1 [Example 31, N-(4-(phenylamino)quinazolin-6-yl)-2-(piperidin-4-ylidene)acetamide] |
| 82 | O=C(C=C1CCNCC1)Nc1cc2c(Nc3cccc(Br)c3)ncnc2cc1OCCCN1CCOCC1 [Example 37, N-(4-(3-bromophenylamino)-7-(3-morpholinopropoxy)quinazolin-6-yl)-2-(piperidin-4-ylidene)acetamide] |
| 89 | COCCOc1cc2ncnc(Nc3cccc(Br)c3)c2cc1NC(=O)C=C1CCNCC1 [Example 40, N-(4-(3-bromophenylamino)-7-(2-methoxyethoxy)quinazolin-6-yl)-2-(piperidin-4-ylidene)acetamide] |
| 52 | CCOc1cc2ncnc(Nc3ccc(OCc4ccccn4)c(Cl)c3)c2cc1NC(=O)C=C1CCNCC1 [Example 107, N-(4-(3-chloro-4-(pyridin-2-ylmethoxy)phenylamino)-7-ethoxyquinazolin-6-yl)-2-(piperidin-4-ylidene)acetamide] |
| 59 | COc1cc2ncnc(Nc3ccc(Oc4ccccc4)c(OC)c3)c2cc1NC(=O)C=C1CCNCC1 [Example 110, N-(7-methoxy-4-(3-methoxy-4-phenoxyphenylamino)quinazolin-6-yl)-2-(piperidin-4-ylidene)acetamide] |
| 89 | COc1cc2ncc(C#N)c(Nc3ccc(OCc4cccc(F)c4)c(Cl)c3)c2cc1NC(=O)C=C1CCNCC1 [Example 144, N-(4-(4-(3-fluorobenzyloxy)-3-chlorophenylamino)-3-cyano-7-methoxyquinolin-6-yl)-2-(piperidin-4-ylidene)acetamide] |
